Data on 39 compounds can be found in BindingDB's records for doi:10.7270/Q2TX3CSC (Vanderbilt Screening Center for GPCRs, Ion Channels and …, 2009).

This test addresses T1, Solute carrier family 12 member 5 (Homo sapiens, UniProt Q9H2X9).
T1 sequence (Q9H2X9 whole entry): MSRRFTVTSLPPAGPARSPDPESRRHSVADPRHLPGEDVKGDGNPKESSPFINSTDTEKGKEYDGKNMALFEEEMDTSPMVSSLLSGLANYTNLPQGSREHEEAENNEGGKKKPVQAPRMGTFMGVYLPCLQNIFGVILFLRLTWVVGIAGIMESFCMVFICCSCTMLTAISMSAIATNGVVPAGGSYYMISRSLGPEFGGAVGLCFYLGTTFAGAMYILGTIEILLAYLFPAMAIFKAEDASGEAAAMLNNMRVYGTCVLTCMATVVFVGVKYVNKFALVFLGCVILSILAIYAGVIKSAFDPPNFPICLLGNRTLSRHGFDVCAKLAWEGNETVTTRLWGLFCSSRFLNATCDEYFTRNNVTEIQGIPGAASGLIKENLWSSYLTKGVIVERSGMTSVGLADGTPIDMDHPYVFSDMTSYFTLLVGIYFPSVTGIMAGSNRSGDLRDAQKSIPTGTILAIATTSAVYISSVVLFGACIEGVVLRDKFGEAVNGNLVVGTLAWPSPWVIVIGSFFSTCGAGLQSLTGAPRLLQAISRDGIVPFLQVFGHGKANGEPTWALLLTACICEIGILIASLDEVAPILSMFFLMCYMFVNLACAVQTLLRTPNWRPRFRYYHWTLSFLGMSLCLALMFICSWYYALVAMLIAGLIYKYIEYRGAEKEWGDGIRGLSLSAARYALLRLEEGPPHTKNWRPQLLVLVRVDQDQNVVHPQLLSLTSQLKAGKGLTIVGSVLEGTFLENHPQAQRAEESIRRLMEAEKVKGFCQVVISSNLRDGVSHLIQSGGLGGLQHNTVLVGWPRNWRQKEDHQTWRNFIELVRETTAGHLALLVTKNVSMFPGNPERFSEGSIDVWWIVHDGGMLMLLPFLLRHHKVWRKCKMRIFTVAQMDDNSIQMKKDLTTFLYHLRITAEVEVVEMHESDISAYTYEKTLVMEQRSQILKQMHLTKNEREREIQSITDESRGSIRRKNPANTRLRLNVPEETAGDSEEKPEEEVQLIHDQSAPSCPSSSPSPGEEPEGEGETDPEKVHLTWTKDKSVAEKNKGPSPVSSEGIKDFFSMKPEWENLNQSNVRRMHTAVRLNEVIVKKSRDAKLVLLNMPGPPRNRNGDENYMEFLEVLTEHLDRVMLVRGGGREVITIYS
The experiment in a line: KCC2 modulator potency by thallium flux, dose response, cell-based, HEK293 KCC2, FluoZin-2 fluorescence (AID 1736).

Where [1] appears, read: inactive by the depositor's call.

For orientation: EC50 means the concentration at which the effect is half-maximal. Read a low EC50 as higher potency in that assay. For `Cc1ccc(OCCC(=O)OCC(=O)N2c3ccccc3CC2C)cc1` (centres undefined) [3-(4-methylphenoxy)propanoic acid [2-(2-methyl-2,3-dihydroindol-1-yl)-2-oxoethyl] ester], the EC50 came out at 3.85 µM. Still for that read-out and setting: to `CCOc1ccc2nc(Sc3cc(O)n(-c4cccc(OC)c4)c3O)sc2c1` [3-(6-Ethoxy-benzothiazol-2-ylsulfanyl)-1-(3-methoxy-phenyl)-pyrrolidine-2,5-dione] belongs 244 µM; to `COC(=O)c1sccc1NC(=S)OC` [3-(methoxycarbothioylamino)thiophene-2-carboxylic acid methyl ester], 1.78 µM; to `O=C(Nc1ccc(Cc2ccncc2)cc1)c1cccc([N+](=O)[O-])c1` [3-Nitro-N-(4-pyridin-4-ylmethyl-phenyl)-benzamide], 15.3 µM. As to `O=C(Cn1nnc2c(cnn2-c2ccccc2)c1=O)N1CCN(c2ccccc2F)CC1` [3-[2-[4-(2-fluorophenyl)-1-piperazinyl]-2-oxoethyl]-7-phenyl-4-pyrazolo[3,4-d]triazinone], the EC50 was 147 µM.

Compound `O=C(CCCn1ncn2c(cc3occc32)c1=O)N1CCc2ccccc2C1` [3-[4-(3,4-dihydro-1H-isoquinolin-2-yl)-4-keto-butyl]furo[3,4]pyrrolo[3,5-c][1,2,4]triazin-4-one] registered a concentration giving a half-maximal response (EC50) under setting [1] of 44.2 µM.

Take `O=C(O)CCc1cc(I)c(Oc2ccc(O)c(I)c2)c(I)c1` [3-[4-(4-hydroxy-3-iodophenoxy)-3,5-diiodophenyl]propanoic acid]: the EC50 amounted to 5.39 µM. The compound `Cc1ccc(C(=O)O)cc1-c1ccc(C=C2NC(=O)N(c3ccccc3)C2=O)o1` [3-[5-[(E)-(2,5-dioxo-1-phenylimidazolidin-4-ylidene)methyl]furan-2-yl]-4-methylbenzoic acid] returned an EC50 of 14.8 µM. For `O=C(O)CCN(Cc1ccccc1)S(=O)(=O)c1c(Cl)cccc1Cl` [3-[(2,6-dichlorophenyl)sulfonyl-(phenylmethyl)amino]propanoic acid], the response was half-maximal at 59.2 µM (EC50). Regarding `Fc1ccccc1CSc1nncn1NC/C=C/c1ccccc1` [3-[(2-fluorophenyl)methylsulfanyl]-N-[(E)-3-phenylprop-2-enyl]-1,2,4-triazol-4-amine], the EC50 under setting [1] worked out at 0.0567 µM. Compound `Cc1ccc(S(=O)(=O)N(CCC(=O)O)Cc2ccc(Cl)cc2)cc1` [3-[(4-chlorobenzyl)-tosyl-amino]propionic acid] gave an EC50 of 0.491 µM. Same read-out and setting: to `Fc1ccc(CSc2nncn2NC/C=C/c2ccccc2)cc1` [3-[(4-fluorobenzyl)thio]-N-(3-phenyl-2-propen-1-yl)-4H-1,2,4-triazol-4-amine] belongs 30.2 µM; to `CC1(CCc2ccccc2)NC(=O)N(Cc2nnc(-c3ccccc3Br)o2)C1=O` (centres undefined) [3-[[5-(2-bromophenyl)-1,3,4-oxadiazol-2-yl]methyl]-5-methyl-5-(2-phenylethyl)imidazolidine-2,4-dione], 14.3 µM. In turn, `O=C(OCC(=O)N1CCN(C(=O)c2ccco2)CC1)c1sc2ccccc2c1Cl` [3-chloro-1-benzothiophene-2-carboxylic acid [2-[4-[2-furanyl(oxo)methyl]-1-piperazinyl]-2-oxoethyl] ester] displayed a half-maximal effective concentration (EC50) of 0.478 µM. On the same count and under the same terms, then `CCOc1cc(S(=O)(=O)NCc2ccccc2)ccc1F` [3-ethoxy-4-fluoranyl-N-(phenylmethyl)benzenesulfonamide], with 5.92 µM; and `C=C(C)Cn1c(N2CCC(Cc3ccccc3)CC2)nc2c1c(=O)[nH]c(=O)n2C` [3-methyl-7-(2-methylprop-2-enyl)-8-[4-(phenylmethyl)-1-piperidinyl]purine-2,6-dione], with 20.4 µM. `O=c1oc2ccccc2c(Nc2cc3ccccc3cc2O)c1[N+](=O)[O-]` [3-nitro-4-[(3-oxidanylnaphthalen-2-yl)amino]chromen-2-one]: under setting [1], the concentration for a half-maximal effect (EC50) turned out to be 11.4 µM. In the case of `COCCNS(=O)(=O)c1ccc(-c2ccc(Cl)cc2)cc1` [4'-chloro-N-(2-methoxyethyl)-4-biphenylsulfonamide], the EC50 was 6 µM. Still for that read-out and setting: to `Cc1c(N=C2Nc3cccc4cccc2c34)c(=O)n(-c2ccccc2)n1C` [4-(2-benzo[cd]indolylamino)-1,5-dimethyl-2-phenyl-3-pyrazolone] belongs 1.48 µM; to `O=C(OCC(=O)N1CCc2ccccc2C1)c1ccc(N2CCOCC2)c([N+](=O)[O-])c1` [4-(4-morpholinyl)-3-nitrobenzoic acid [2-(3,4-dihydro-1H-isoquinolin-2-yl)-2-oxoethyl] ester], 5.37 µM; to `O=C(NC(=S)NNC(=O)c1cnccn1)c1ccc(Cl)cc1` [4-Chloro-N-[N'-(pyrazine-2-carbonyl)-hydrazinocarbothioyl]-benzamide], 23.3 µM. On the same count and under the same terms, to `CCOC(=O)c1cc2c(ccn2-c2ccc(F)cc2)n1CC(=O)NC(C)(C)C` [4-[2-(tert-butylamino)-2-keto-ethyl]-1-(4-fluorophenyl)pyrrolo[3,2-b]pyrrole-5-carboxylic acid ethyl ester] belongs 51100 µM; to `COc1ccc(-c2cc(CCCC(=O)NCCc3ccccc3)no2)cc1` [4-[5-(4-methoxyphenyl)-1,2-oxazol-3-yl]-N-(2-phenylethyl)butanamide], 0.725 µM; to `COCCN1C(=O)/C(=C/c2ccc(OCc3ccc(C(=O)O)cc3)c(OC)c2)S/C1=N/c1ccccc1` [4-[(2-methoxy-4-{[3-(2-methoxyethyl)-4-oxo-2-(phenylimino)-1,3-thiazolidin-5-ylidene]methyl}phenoxy)methyl]benzoic acid], 44.9 µM. Consider `Cc1n[nH]c(O)c1C(c1ccc(-c2ccc(F)cc2)o1)c1c(C)n[nH]c1O` [4-[[5-(4-fluorophenyl)furan-2-yl]-(3-methyl-5-oxo-1,2-dihydropyrazol-4-yl)methyl]-5-methyl-1,2-dihydropyrazol-3-one], for which it took 8.39 µM to reach a half-maximal effect (EC50). Compound `CCOc1cc(Br)ccc1S(=O)(=O)NCc1ccccc1` [4-bromanyl-2-ethoxy-N-(phenylmethyl)benzenesulfonamide] had an EC50 of 14.7 µM. `O=S(=O)(Nc1nc2ccccc2nc1N1CCN(c2ccccn2)CC1)c1ccc(Cl)cc1` [4-chloranyl-N-[3-(4-pyridin-2-ylpiperazin-1-yl)quinoxalin-2-yl]benzenesulfonamide] showed an EC50 of 6.8 µM.

For the compound `COc1ccc(S(=O)(=O)N(C)CC(=O)N2CCN(Cc3ccccc3)CC2)cc1C` [4-methoxy-N,3-dimethyl-N-[2-oxidanylidene-2-[4-(phenylmethyl)piperazin-1-yl]ethyl]benzenesulfonamide], the EC50 amounted to 1.49 µM. The compound `COc1ccc(C(=O)NC(=S)N2CCN(c3ccc([N+](=O)[O-])cc3)CC2)cc1` [4-methoxy-N-[4-(4-nitrophenyl)piperazin-1-yl]carbothioyl-benzamide] gave an EC50 under setting [1] of 0.178 µM. Same read-out and setting: then `CSc1sc(-c2nnc(S)n2C)c2c1C=CCC2` [4-methyl-3-[3-(methylthio)-6,7-dihydro-2-benzothiophen-1-yl]-1H-1,2,4-triazole-5-thione], with 15.7 µM. Compound `Cc1ccc(CSCCNC(=O)c2ccc(C)cc2)cc1` [4-methyl-N-[2-[(4-methylbenzyl)thio]ethyl]benzamide] registered a concentration giving a half-maximal response (EC50) of 2690 µM. `O=C(NCC1CCCN(C(=O)c2cccnc2)C1)c1ccc(-c2ccccc2)cc1` (centres undefined) [4-phenyl-N-[(1-pyridin-3-ylcarbonylpiperidin-3-yl)methyl]benzamide] yielded a half-maximal effective concentration (EC50) of 2.85 µM. Same read-out and setting: to `Sc1nnc(Cc2cccc3ccccc23)o1` [5-(1-naphthalenylmethyl)-3H-1,3,4-oxadiazole-2-thione] belongs 0.304 µM; to `Sc1nnc(C2(c3ccccc3)CCCC2)o1` [5-(1-phenylcyclopentyl)-3H-1,3,4-oxadiazole-2-thione], 3.3 µM; to `Sc1nnc(Cc2c[nH]c3ccccc23)o1` [5-(1H-indol-3-ylmethyl)-1,3,4-oxadiazole-2(3H)-thione], 16.1 µM.

`O=C(OCc1ccccn1)c1ccc(COc2ccccc2Cl)o1` [5-(2-Chloro-phenoxymethyl)-furan-2-carboxylic acid pyridin-2-ylmethyl ester] yielded an EC50 of 14.3 µM. In turn, `N#Cc1nc(Cc2cccc3ccccc23)oc1NCCN1CCOCC1` [5-(2-Morpholin-4-yl-ethylamino)-2-naphthalen-1-ylmethyl-oxazole-4-carbonitrile] showed an EC50 of 5.4 µM. Same read-out and setting: then `COc1cccc(Nc2nnc(S)s2)c1` [5-(3-methoxyanilino)-3H-1,3,4-thiadiazole-2-thione], with 3.05 µM. The same measure, in the same setting: then `Sc1nnc(COc2ccc(Cl)cc2)o1` [5-(4-Chloro-phenoxymethyl)-3H-[1,3,4]oxadiazole-2-thione], with 9.34 µM.
